We go through 14 molecules from patent US20240216313A1, “ELAFIBRANOR DERIVATIVES AGONISTS OF PPAR FOR USE IN THE TREATMENT OF SEPSIS” (Genfit, priority 2021, published 2024).

Read-outs that look alike come from different tables or passages of the source.

What is called inhibition is the change of the read-out against control, counted positive when it falls.

In data set [1] the test system is THP1 differentiated macrophages. The data set can be described thus: Macrophage activation: cytokine production by THP1 differentiated macrophages stimulated with LPS (E. coli O55:B5). It counts as cell-based, human. The conditions noted are these: compound 24 h, then 100 ng/mL LPS E. coli 6 h. As for the experimental part:
(§1) In order to test the efficacy of the compounds on macrophage activation and pro-inflammatory cytokine production, 2.5×10^4 THP-1 cells were cultured in a 384-well plate and treated with 100 ng/mL PMA (#P8139, Sigma) for 24 h to induce differentiation into macrophages.
Then, medium was removed and FBS-deprived medium containing the compound of formula (I) was added for 24 h. Finally, THP1 macrophages were stimulated with 100 ng/mL LPS (E. coli O55:B5, #L4005, Sigma) for 6 h.

For data set [2], the system named is LPS-induced endotoxemia. The data set is described as follows: Preclinical model of endotoxemia: hepatic markers (total bilirubin, albumin) and TNFα in rat serum. Format: in vivo, male Sprague Dawley rats. The conditions noted are these: rats, 3 mg/kg/day oral gavage 3 days before LPS, blood 3 h after LPS.
In data set [3] the test system is CLP induced polymicrobial sepsis. The data set can be described thus: Cecal ligation and puncture (CLP) model of polymicrobial sepsis: survival. It counts as in vivo, C57BL6J male mice. Conditions: mice, 0.3 mg/kg p.o. The protocol: This study aims to investigate the efficacy of Cpd.1 in cecal ligation and puncture (CLP) model in C57BL6J (BL6) male mice. The efficacy of the test compound was evaluated based on the survival rate of the animals within the study period.
C57BL6J male mice (supplier Janvier—France) at 9 weeks of age and weighing 23-25 g on arrival were anesthetized with 250 μL of xylazine/ketamine solution (20 mg/100 g body weight) by intraperitoneal route. A 1-1.5 cm abdominal midline incision was made, and the caecum was located and tightly ligated at half the distance between distal pole and the base of the cecum with 4-0 silk suture (mild grade). The caecum was punctured through-and-through once with a 21-gauge needle from mesenteric toward antimesenteric direction after medium ligation. A small amount of stool was extruded to ensure that the wounds were patent. Then the cecum was replaced in its original position within the abdomen, which was closed with sutures and wound clips. Mice were followed for body weight evolution and mortality rate until Day 6.
Cpd.1 or vehicle (Labrafil M 1944 CS, #3063, Gattefossé) was administrated at 0.3 mg/kg, p.o. for three days before CLP surgery. The day of CLP (day 0), Cpd.1 was administrated 1 h before surgery and pursued daily until day 6. Experiment was terminated at day 7.
Two groups of C57BL6J mice at the age of 9 weeks were treated as described above. • 1. […]

For data set [4], the system named is HepG2 cells. The data set can be described thus: Staurosporin-induced apoptosis in HepG2 cells (caspase 3/7 activity, Caspase Glo). The conditions noted are these: 16 h pre-treatment, then 10 μM staurosporin 4 h; for inhibition at 0.3 µM: Homo sapiens, HepG2, 0.3 μM, read-out: % Inhibition of caspase activity over mean Veh. Format: cell-based, human. The protocol: In order to evaluate the effect of the compounds on human hepatocytes that undergo a cellular stress induced by staurosporin, the human hepatoblastoma-derived HepG2 cell line (ECACC, #85011430, Sigma-Aldrich) was cultured in high-glucose DMEM medium (#41965, Gibco, France) supplemented with 10% of fetal bovine serum (FBS, #10270, Gibco), 1% penicillin/streptomycin (#15140, Gibco), 1% sodium pyruvate (#11360, Gibco) and 1% MEM non-essential amino acids (#11140, Gibco) in a 5% CO2 incubator at 37° C.
To evaluate caspase 3/7 activity, which is a surrogate marker of apoptosis, 1.5×10^4 cells were plated in a 384-well plate (#781080, Greiner, France). After cell adherence (8 hours), cells were serum starved for 16 h in the presence of 0.3 μM of compounds or vehicle. Cpd.1 was also used at 3 and 10 μM. Thereafter, cells were treated with 10 μM staurosporin (#569397, Sigma-Aldrich, Germany) supplemented with compound for additional 4 hours before cell lysis and caspase activity measurement.
Caspase 3/7 activity was measured using Caspase Glow™ 3/7 assay (#G8093, Promega, USA). Luminescence was measured using a Spark microplate reader (#30086376, Tecan, USA). The amount of luminescence (RLU) directly correlates with caspase 3/7 activity.

Data set [5] deals with THP1 macrophages. The data set can be described thus: Macrophage activation: MCP1 and TNFα secretion induced by LPS from Klebsiella in THP1 macrophages (HTRF). Format: cell-based, human. The conditions noted are these: 24 h, then LPS Klebsiella 6 h; for inhibition at 10 µM / inhibition at 1 µM: Homo sapiens; for inhibition at 10 µM: THP-1, 10 μM; for inhibition at 1 µM: THP-1, 1 μM. The protocol: as §1
Then, medium was removed and FBS-deprived medium containing 1 or 10 μM compound was added for 24 h. Finally, THP1 macrophages were stimulated for 6 h with 100 ng/mL LPS (Klebsiella pneumoniae, #L4268, Sigma-Aldrich).
Monocyte chemoattractant protein 1 (MCP1) and […] (TNFα) were measured in cell supernatants by Homogeneous Time Resolved Fluorescence (HTRF, #62[…] for TNFα, and 62HCCL2PEG for MCP1, Cisbio). Fluorescence was measured with Infinite 500 (#30019337, Tecan) to determine the concentration of cytokines.
For orientation: Time-resolved FRET reads energy transfer from a long-lived donor to a nearby acceptor.

[6] abbreviates: read-out: % inhibition of MCP1 secretion over mean Veh.
Setting [7] is: read-out: % inhibition of TNFα secretion over mean Veh.

`COC(CCc1cc(C)c(OC(C)(C)C(=O)O)c(C)c1)c1ccc(OC(F)(F)F)cc1` (stereo not drawn) [Cpd. 1, 2-[4-(3-methoxy-3-(4-(trifluoromethoxy)phenyl)propyl)-2,6-dimethylphenoxy]-2-methylpropanoic acid]: in data set [1], the “reduction of TNFα secretion” value is reported as “potent at reducing TNFα”. Moreover, the “reduction of MCP1 secretion” value in data set [1] (all doses tested) was “overpassing the untreated condition for MCP1 secretion at all doses tested”. In data set [2], the “serum total bilirubin level compared to the vehicle condition” value is given as “completely restored the level of total bilirubin”. Further, in data set [3], the “side effect recorded after each administration” value is “No side effect”. For the same molecule, the “reduction of staurosporin-induced caspase activity, dose dependence” value in data set [4] (0.3, 3 and 10 μM) was “reduced caspase activity induced by staurosporin in a dose-dependent manner”.
`Cc1cc(CCC(=O)c2ccc(OC(F)(F)F)cc2)cc(C)c1OC(C)(C)C(=O)O` [Cpd. 2, 2-[2,6-dimethyl-4-[3-[4-(trifluoromethyloxy)phenyl]-3-oxo-propyl]phenoxy]-2-methylpropanoic acid]: the inhibition at 10 µM in data set [5] (setting [6]) is 106%. In addition, the inhibition at 0.3 µM in data set [4] came to 70%.
For the molecule `Cc1cc(CCC(=O)c2ccc(C(F)(F)F)cc2)cc(C)c1OC(C)(C)C(=O)O` [Cpd. 3, 2-[2,6-dimethyl-4-[3-[4-(trifluoromethyl)phenyl]-3-oxo-propyl]phenoxy]-2-methylpropanoic acid], the inhibition at 10 µM in data set [5] (setting [6]) came to 107%; in data set [5] (setting [7]), 20%.
Turning to `CSc1ccc(C(CCc2cc(C)c(OC(C)(C)C(=O)O)c(C)c2)OC(C)C)cc1` (stereo not drawn) [Cpd. 5, 2-[2,6-dimethyl-4-[3-[4-(methylthio)phenyl]-3-isopropyloxypropyl]phenoxy]-2-methylpropanoic acid], the inhibition at 10 µM in data set [5] (setting [6]) came to 110%.
Turning to `Cc1cc(CCC(O)c2ccc(OC(F)(F)F)cc2)cc(C)c1OC(C)(C)C(=O)O` (stereo not drawn) [Cpd. 6, 2-(4-(3-hydroxy-3-(4-(trifluoromethoxy)phenyl)propyl)-2,6-dimethylphenoxy)-2-methylpropanoic acid], the inhibition at 10 µM in data set [5] (setting [6]) was determined as 103%. Further, in data set [4], the inhibition at 0.3 µM was determined as 43%.
Regarding `CON=C(CCc1cc(C)c(OC(C)(C)C(=O)O)c(C)c1)c1ccc(OC(F)(F)F)cc1` [Cpd. 7, 2-(4-(3-(methoxyimino)-3-(4-(trifluoromethoxy)phenyl)propyl)-2,6-dimethylphenoxy)-2-methylpropanoic acid], the results for the inhibition at 10 µM in data set [5] (setting [6]) and in data set [5] (setting [7]) were 107% and 42%, respectively. For the same molecule, the inhibition at 0.3 µM in data set [4] came to 66%.
`CCOC(CCc1ccc(OC(C)(C)C(=O)O)c(Cl)c1Cl)c1sc(-c2ccc(C(F)(F)F)cc2)nc1C` (stereo not drawn) [Cpd. 9, 2-(2,3-dichloro-4-(3-ethoxy-3-(4-methyl-2-(4-(trifluoromethyl)-phenyl)thiazol-5-yl)propyl)phenoxy)-2-methylpropanoic acid]: the figures for the inhibition at 10 µM in data set [5] (setting [6]) and in data set [5] (setting [7]) were 127% and 77%, respectively.
Regarding `COC(CCc1cc(C)c(OC(C)(C)C(=O)O)c(C)c1)c1ccc(SC)cc1` (stereo not drawn) [Cpd. 13, 2-[2,6-dimethyl-4-[3-[4-(methylthio)phenyl]-3-methoxypropyl]phenoxy]-2-methylpropanoic acid], in data set [5] (setting [6]), the inhibition at 1 µM turned out to be 99% and the inhibition at 10 µM was determined as 111%. Also, in data set [5] (setting [7]), the inhibition at 1 µM stood at 0% and the inhibition at 10 µM is 18%. Besides, the “% Inhibition of caspase activity over mean Veh.” value in data set [4] (0.3 μM) was determined as 79%.
`COC(CCc1cc(C)c(OC(C)(C)C(=O)O)c(C)c1)c1ccc(Br)cc1` (stereo not drawn) [Cpd. 14, 2-[2,6-dimethyl-4-[3-[4-bromophenyl]-3-methoxypropyl]phenoxy]-2-methylpropanoic acid]: the inhibition at 10 µM in data set [5] (setting [6]) was found to be 107%; in data set [5] (setting [7]), 28%. In addition, the inhibition at 0.3 µM in data set [4] is 77%.
Turning to `CC(C)(Oc1ccc(CCNC(=O)c2ccc(Cl)cc2)cc1)C(=O)O` [Cpd. 17, bezafibrate, reference compound], the inhibition at 10 µM in data set [5] (setting [6]) was determined as 54%.
In the case of `CC[C@@H](Oc1cccc(CN(CCCOc2ccc(OC)cc2)c2nc3ccccc3o2)c1)C(=O)O` [Cpd. 18, pemafibrate, reference compound], the inhibition at 10 µM in data set [5] (setting [6]) was 123%.
Turning to `CCc1ccc(CCOc2ccc(CC3SC(=O)NC3=O)cc2)nc1` (stereo not drawn) [Cpd. 21, pioglitazone, reference compound], the figures for the inhibition at 10 µM in data set [5] (setting [6]) and in data set [5] (setting [7]) were 121% and 19%, respectively. The inhibition at 0.3 µM in data set [4] worked out at 60%.
As for `CN(CCOc1ccc(CC2SC(=O)NC2=O)cc1)c1ccccn1` (stereo not drawn) [Cpd. 22, rosiglitazone, reference compound], in data set [5] (1 μM), the “% inhibition of MCP1 secretion over mean Veh.” value came to 79% and the “% inhibition of TNFα secretion over mean Veh.” value was 36%. Moreover, in data set [5] (10 μM), the “% inhibition of MCP1 secretion over mean Veh.” value is 117% and the “% inhibition of TNFα secretion over mean Veh.” value was 11%.
Consider `O=C(O)CCCc1cc2cc(Cl)ccc2n1S(=O)(=O)c1ccc2ncsc2c1` [Cpd. 23, lanifibranor, reference compound], for which the inhibition at 10 µM amounted to 126% in data set [5] (setting [6]) and 32% in data set [5] (setting [7]).
